# Data as given in patent publication US20090005363A1, “Organic Compounds” (priority 2005, published 2009).
# Structures can show the parent of a compound that is named as a salt.
# Biological target: mGluR5 (Homo sapiens, UniProt P41594)
# Test: inhibition of the glutamate induced elevation of intracellular Ca2+ concentration
# Conditions: inhibition of glutamate induced elevation of intracellular Ca2+ concentration at 10 μM
# From the text: This can be determined in vitro for example at recombinant human metabotropic glutamate receptors, especially PLC-coupled subtypes thereof such as mGluR5, using different procedures like, for example, measurement of the inhibition of the agonist induced elevation of intracellular Ca^2+ concentration in accordance with L. P. Daggett et al., Neuropharm.
# mGluR5, sequence (P41594 21-1180 isoform P41594-2 limits assumed): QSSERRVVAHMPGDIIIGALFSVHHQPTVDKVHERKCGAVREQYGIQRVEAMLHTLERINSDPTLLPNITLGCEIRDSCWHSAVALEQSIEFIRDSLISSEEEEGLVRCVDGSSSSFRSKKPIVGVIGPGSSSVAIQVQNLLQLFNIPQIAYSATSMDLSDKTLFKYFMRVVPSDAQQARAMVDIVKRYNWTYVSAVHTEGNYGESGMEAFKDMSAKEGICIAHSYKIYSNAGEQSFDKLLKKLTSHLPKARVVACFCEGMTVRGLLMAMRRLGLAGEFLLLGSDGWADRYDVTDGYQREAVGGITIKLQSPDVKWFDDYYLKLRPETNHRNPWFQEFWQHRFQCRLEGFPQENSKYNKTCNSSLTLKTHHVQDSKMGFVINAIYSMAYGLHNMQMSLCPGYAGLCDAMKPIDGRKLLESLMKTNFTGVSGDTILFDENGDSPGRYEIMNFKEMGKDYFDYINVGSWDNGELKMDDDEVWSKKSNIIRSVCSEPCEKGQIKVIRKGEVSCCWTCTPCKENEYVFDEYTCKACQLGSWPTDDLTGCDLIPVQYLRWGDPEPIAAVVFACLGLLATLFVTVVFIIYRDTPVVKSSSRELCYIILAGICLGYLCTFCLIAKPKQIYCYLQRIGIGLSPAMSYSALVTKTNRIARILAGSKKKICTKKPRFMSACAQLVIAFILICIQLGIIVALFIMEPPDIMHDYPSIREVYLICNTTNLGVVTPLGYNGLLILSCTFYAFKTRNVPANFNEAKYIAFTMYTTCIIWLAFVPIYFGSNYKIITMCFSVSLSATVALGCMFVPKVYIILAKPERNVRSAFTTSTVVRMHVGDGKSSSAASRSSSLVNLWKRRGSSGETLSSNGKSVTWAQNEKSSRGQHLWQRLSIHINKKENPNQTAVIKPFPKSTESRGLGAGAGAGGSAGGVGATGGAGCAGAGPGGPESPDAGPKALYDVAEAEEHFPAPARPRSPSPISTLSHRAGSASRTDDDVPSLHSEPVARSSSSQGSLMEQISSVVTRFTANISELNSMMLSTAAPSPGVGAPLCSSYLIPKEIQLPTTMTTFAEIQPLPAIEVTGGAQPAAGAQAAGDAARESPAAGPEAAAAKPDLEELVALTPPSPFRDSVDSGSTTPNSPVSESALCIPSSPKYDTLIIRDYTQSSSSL
row,Structure (SMILES),mGluR5 Activity inh. at 10 μM [%]
1,"Cc1ccc(Nc2ncc(C(=O)N3CCC[C@@H]4CCC[C@@H]43)cc2Cl)cn1 [Compound 4.26, [5-Chloro-6-(6-methyl-pyridin-3-ylamino)-pyridin-3-yl]-(4aS,7aS)-octahydro-[1]pyridin-1-yl-methanone]",93
2,"C/C=C\C1CCCCN1C(=O)c1cnc(Nc2ccc(C)nc2)c(Cl)c1 (stereo not drawn) [Compound 4.56, [5-Chloro-6-(6-methyl-pyridin-3-ylamino)-pyridin-3-yl]-[((Z)-2-propenyl)-piperidin-1-yl]-methanone]",97
3,"Cc1ccc(Nc2ncc(C(=O)N3CCCC4CCCC43)cc2Cl)cn1 (stereo not drawn) [Compound 4.25, [5-Chloro-6-(6-methyl-pyridin-3-ylamino)-pyridin-3-yl]-(octahydro-[1]pyridin-1-yl)-methanone]",98
4,"COc1ccc(Nc2ccc(C(=O)N3C[C@@H](C)O[C@@H](C)C3)cn2)cc1.Cl [Compound 1.21, (cis-Z 6-Dimethyl-morpholin-4-yl)-[6-(4-methoxy-phenylamino)-pyridin-3-yl]-methanone hydrochloride]",57

# Same assay, conditions: read-out: mGluR5 Activity inh. at 10 μM [%]
row,Structure (SMILES),inhibition at 10 µM [%]
1,"COc1ccc(Nc2ncc(C(=O)N3CCCCCC3)cc2Cl)cn1 [Compound 2.7, Azepan-1-yl-[5-chloro-6-(6-methoxy-pyridin-3-ylamino)-pyridin-3-yl]-methanone]",98
2,"O=C(c1ccc(Nc2ccc(Cl)cc2)nn1)N1CCCCC1 [Compound 8.1, [6-(4-Chloro-phenylamino)-pyridazin-3-yl]-piperidin-1-yl-methanone]",91
3,"CCCC1OCCCCN1C(=O)c1cnc(Nc2ccc(C)nc2)c(Cl)c1 (stereo not drawn) [Compound 4.66, [5-Chloro-6-(6-methyl-pyridin-3-ylamino)-pyridin-3-yl]-(2-propyl-[1,3]oxazepan-3-yl)-methanone]",91
4,"CCC1CCCN(C(=O)c2cnc(Nc3ccc(C)nc3)c(Cl)c2)C1CC (stereo not drawn) [Compound 4.37, [5-Chloro-6-(6-methyl-pyridin-3-ylamino)-pyridin-3-yl]-(2,3-diethyl-piperidin-1-yl)-methanone]",94
5,"Cc1ccc(Nc2ncc(C(=O)N3CCCC3c3ccc(C)s3)cc2Cl)cn1 (stereo not drawn) [Compound 4.75, [5-Chloro-6-(6-methyl-pyridin-3-ylamino)-pyridin-3-yl]-[2-(5-methyl-thiophen-2-yl)-pyrrolidin-1-yl]-methanone]",96
6,"CC1CCCN(C(=O)c2ccc(Nc3ccc(Cl)cc3)nn2)C1 (racemic) [Compound 8.2, rac-[6-(4-Chloro-phenylamino)-pyridazin-3-yl]-(3-methyl-piperidin-1-yl)-methanone]",100
7,"CCOCC1CCCCN1C(=O)c1cnc(Nc2ccc(C)nc2)c(Cl)c1 (stereo not drawn) [Compound 4.60, [5-Chloro-6-(6-methyl-pyridin-3-ylamino)-pyridin-3-yl]-(2-ethoxymethyl-piperidin-1-yl)-methanone]",97
8,"COc1ccc(Nc2ccc(C(=O)N3CCCC(C)C3)cn2)cc1 (stereo not drawn) [Compound 1.14, [6-(4-Methoxy-phenylamino)-pyridin-3-yl]-(3-methyl-piperidin-1-yl)-methanone hydrochloride]",94
9,"Cc1ccc(Nc2ccc(C(=O)N3CCCC(C)C3)cn2)cn1 (racemic) [Compound 4.13, rac-(3-Methyl-piperidin-1-yl)-[6-(6-methyl-pyridin-3-ylamino)-pyridin-3-yl]-methanone]",97
10,"CCC=C1CCCN(C(=O)c2cnc(Nc3ccc(C)nc3)c(Cl)c2)C1 [Compound 4.58, [5-Chloro-6-(6-methyl-pyridin-3-ylamino)-pyridin-3-yl]-[3-propylidene-piperidin-1-yl]-methanone]",93
11,"CC1CCN(C(=O)c2ccc(Nc3ccc(Cl)cc3)nc2)CC1 [Compound 4.4, [6-(4-Chloro-phenylamino)-pyridin-3-yl]-(4-methyl-piperidin-1-yl)-methanone]",98
12,"CC1CCN(C(=O)c2ccc(Nc3ccc(Cl)cc3)nn2)CC1 [Compound 8.5, [6-(4-Chloro-phenylamino)-pyridazin-3-yl]-(4-methyl-piperidin-1-yl)-methanone]",86
13,"CCCC1CCC(F)CN1C(=O)c1cnc(Nc2ccc(C)nc2)c(Cl)c1 (stereo not drawn) [Compound 4.62, [5-Chloro-6-(6-methyl-pyridin-3-ylamino)-pyridin-3-yl]-(5-fluoro-2-propyl-piperidin-1-yl)-methanone]",99
14,"C[C@@H]1CN(C(=O)c2ccc(Nc3ccc(Cl)cc3)nc2)C[C@H](C)O1 [Compound 1.19, cis-[6-(4-Chloro-phenylamino)-pyridin-3-yl]-(2,6-dimethyl-morpholin-4-yl)-methanone hydrochloride]",94
15,"Cc1ccc(Nc2ncc(C(=O)N3C(C)CCCC3C)cc2Cl)cn1 (stereo not drawn) [Compound 4.48, [5-Chloro-6-(6-methyl-pyridin-3-ylamino)-pyridin-3-yl]-(2,6-dimethyl-piperidin-1-yl)-methanone]",99
16,"O=C(c1ccc(Nc2ccc(F)c(F)c2)nc1)N1CCCCC1 [Compound 2.3, [6-(3,4-Difluoro-phenylamino)-pyridin-3-yl]-piperidin-1-yl-methanone]",65
17,"CC[C@H]1CCCCN1C(=O)c1cnc(Nc2ccc(C)nc2)c(Cl)c1 [Compound 4.19, [5-Chloro-6-(6-methyl-pyridin-3-ylamino)-pyridin-3-yl]-((S)-2-ethyl-piperidin-1-yl)-methanone]",97
18,"O=C(c1ccc(Nc2ccc(Cl)cc2)nc1)N1CC2CCC(CC2)C1 [Compound 4.9, (3-Aza-bicyclo[3.2.2]non-3-yl)-[6-(4-chloro-phenylamino)-pyridin-3-yl]-methanone]",37

row,Structure (SMILES),inhibition at 10 µM [%]
1,"CCCC1COCCN1C(=O)c1cnc(Nc2ccc(C)nc2)c(Cl)c1 (stereo not drawn) [Compound 4.77, [5-Chloro-6-(6-methyl-pyridin-3-ylamino)-pyridin-3-yl]-(3-propyl-morpholin-4-yl)-methanone]",100
2,"Cc1ccc(Nc2ccc(C(=O)N3CCCCC3)cn2)cn1 [Compound 4.1, [6-(6-Methyl-pyridin-3-ylamino)-pyridin-3-yl]-piperidin-1-yl-methanone]",99
3,"CC[C@@H]1CCCCN1C(=O)c1cnc(Nc2ccc(Cl)cc2)c(Cl)c1 [Compound 4.54, [5-Chloro-6-(4-chloro-phenylamino)-pyridin-3-yl]-((R)-2-ethyl-piperidin-1-yl)-methanone]",97
4,"CC1CCCN(C(=O)c2ccc(Nc3ccc(Cl)cc3)nc2)C1 (racemic) [Compound 1.12, rac-[6-(4-Chloro-phenylamino)-pyridin-3-yl]-(3-methyl-piperidin-1-yl)-methanone]",93
5,"Cc1ccc(Nc2ncc(C(=O)N3CCSC3)cc2Cl)cn1 [Compound 2.14, [5-Chloro-6-(6-methyl-pyridin-3-ylamino)-pyridin-3-yl]-thiazolidin-3-yl-methanone]",97
6,"Cc1ccc(Nc2ncc(C(=O)N3CCCCC3c3ccccc3)cc2Cl)cn1 (stereo not drawn) [Compound 4.41, [5-Chloro-6-(6-methyl-pyridin-3-ylamino)-pyridin-3-yl]-(2-phenyl-piperidin-1-yl)-methanone]",96
7,"Cc1ccc(Nc2ncc(C(=O)N3CCCC(C)C3C)cc2Cl)cn1 (stereo not drawn) [Compound 4.20, [5-Chloro-6-(6-methyl-pyridin-3-ylamino)-pyridin-3-yl]-(2,3-dimethyl-piperidin-1-yl)-methanone]",100
8,"Cc1ccc(Nc2ncc(C(=O)N3CCCCC3c3ccccn3)cc2Cl)cn1 (stereo not drawn) [Compound 4.42, [5-Chloro-6-(6-methyl-pyridin-3-ylamino)-pyridin-3-yl]-(3,4,5,6-tetrahydro-2H-[2,2′]bipyridinyl-1-yl)-methanone]",98
9,"O=C(c1ccc(Nc2ccc(Cl)cc2)nc1)N1CCCC(F)(F)C1 [Compound 4.3, [6-(4-Chloro-phenylamino)-pyridin-3-yl]-(3,3-difluoro-piperidin-1-yl)-methanone]",92
10,"CCCC1CCC(C)CN1C(=O)c1cnc(Nc2ccc(C)nc2)c(Cl)c1 (stereo not drawn) [Compound 4.52, [5-Chloro-6-(6-methyl-pyridin-3-ylamino)-pyridin-3-yl]-(5-methyl-2-propyl-piperidin-1-yl)-methanone]",96
11,"COCCN(CCOC)C(=O)c1ccc(Nc2ccc(Cl)cc2)nc1 [Compound 1.4, 6-(4-Chloro-phenylamino)-N,N-bis-(2-methoxy-ethyl)-nicotinamide hydrochloride]",37
12,"CCC[C@H]1CCCCN1C(=O)c1cnc(Nc2ccc(C)nc2)c(Cl)c1 [Compound 4.35, [5-Chloro-6-(6-methyl-pyridin-3-ylamino)-pyridin-3-yl]-((S)-2-propyl-piperidin-1-yl)-methanone]",85
13,"Cc1ccc(Nc2ncc(C(=O)N3CCCCC3)cc2F)cn1 [Compound 9.2, [5-Fluoro-6-(6-methyl-pyridin-3-ylamino)-pyridin-3-yl]-piperidin-1-yl-methanone]",99
14,"CCC(CC)C1OCCCCN1C(=O)c1cnc(Nc2ccc(C)nc2)c(Cl)c1 (stereo not drawn) [Compound 4.67, [5-Chloro-6-(6-methyl-pyridin-3-ylamino)-pyridin-3-yl]-[2-(1-ethyl-propyl)-[1,3]oxazepan-3-yl]-methanone]",95
15,"CCC1C(C)CCCN1C(=O)c1cnc(Nc2ccc(C)nc2)c(Cl)c1 (stereo not drawn) [Compound 4.40, [5-Chloro-6-(6-methyl-pyridin-3-ylamino)-pyridin-3-yl]-(2-ethyl-3-methyl-piperidin-1-yl)-methanone]",98
16,"CC1CCCN(C(=O)c2ccc(Nc3cccc(Cl)c3)nc2)C1 (stereo not drawn) [Compound 1.16, [6-(3-Chloro-phenylamino)-pyridin-3-yl]-(3-methyl-piperidin-1-yl)-methanone hydrochloride]",54
17,"O=C(c1ccc(Nc2ccc(Cl)cn2)nc1)N1CCCCC1 [Compound 2.1, [6-(5-Chloro-pyridin-2-ylamino)-pyridin-3-yl]-piperidin-1-yl-methanone]",60
